Test results published in ChEMBL document CHEMBL1157502, “Carbaporphyrin ketals as potential agents for a new photodynamic therapy treatment of leishmaniasis” (Bioorg Med Chem, 2008).
Calls of active or inactive are those of the source. The rule behind the calls is not given here.

Tests used:
Type in all cases: functional, organism-based
Leishmania tarentolae [1] = experiment: Growth inhibition of Leishmania tarentolae axenic promastigotes after 2 days relative to ethanol
Leishmania tarentolae [2] = experiment: Growth inhibition of Leishmania tarentolae promastigotes assessed as mitochondrial superoxide production at 5 to 10 uM after 3 hrs by confocal fluorescence microscopy
Leishmania tarentolae [3] = experiment: Growth inhibition of Leishmania tarentolae axenic promastigotes upto 40 uM
Leishmania tarentolae [4] = experiment: Growth inhibition of light-illuminated Leishmania tarentolae promastigotes assessed as enhancement of mitochondrial superoxide production at 5 to 10 uM after 3 hrs by confocal fluorescence microscopy
Leishmania tarentolae [5] = experiment: Induction of mitochondrial singlet oxygen production in Leishmania tarentolae promastigotes at 2 uM by confocal fluorescence microscopy

SMILES	Activity (Leishmania tarentolae [1])	Activity (Leishmania tarentolae [2])	Activity (Leishmania tarentolae [3])	Activity (Leishmania tarentolae [4])	Activity (Leishmania tarentolae [5])
CCOC1(OCC)/C2=C\C3=NC(=C\C4=NC(=C\c5[nH]c(c(C)c5CC)/C=C\1c1ccccc12)/C(CC)=C4CC)/C(CC)=C3C	Dose-dependent effect	Active	inactive	Active	–
CCC1=C(CC)/C2=C/c3[nH]c(c(C)c3CC)/C=C3/c4ccccc4/C(=C/C4=NC(=C\C1=N2)/C(CC)=C4C)C3(OC)OC	Dose-dependent effect	Active	inactive	Active	Active
